From patent US20260355170A1, “Treatment of Endometrial Cancer with MDM2 Inhibitors” (Kartos Therapeutics, Inc., priority 2023, published 2026) come the findings set out here.

What all share (format): cell-based
One test has as its system HEC-151 cells. Briefly: CellTiter-Glo viability/proliferation assay, growth of HEC-151 TP53 WT endometrial cancer cells. The conditions noted are these: 144 h, 6-day incubation. On the procedure:
(§1) The effect of MDM2 inhibitor compound of Formula (I) on growth of a p53 wild-type (TP53 WT) endometrial cancer cell line was assessed in HEC-151 cells, HEC-265 cells, and HEC-108 cells as described below.
(§2) Test and Control Article Preparation: A stock solution for Formula (I) was created by dissolving the compound in 100% DMSO to a concentration of 10 mM which was stored at −20 °C. Working solutions ranging from 0.04 μM to 10 μM to generate a 10-point dilution series were prepared by diluting the stock solution in culture media specific to each cell line (cell line assay media). Final concentrations of DMSO were kept constant at 0.1% to maintain cell viability. […]
(§3) Treatment of Cells for Proliferation Assay: Cells were counted (Countess III automated cell counter, Thermo Fisher Scientific) using a cell viability imaging kit (Thermo Fisher Scientific; cat #R37609). […]
(§4) On Day 0 prior treatment, and after the treatment period, the number of viable cells were measured using the CellTiter-Glo® Luminescent Cell Viability Assay (Promega) according to manufacturer instructions. The luminescence for each treatment condition was normalized to the DMSO control as a percent of control. Dose response curves were generated and EC50s and EC90s were determined based on percent of DMSO control. […]
A general note: In ATP-based viability assays light output follows the ATP content of the culture.

Another test has as its system HEC-265 cells. Briefly: CellTiter-Glo viability/proliferation assay, growth of HEC-265 TP53 WT endometrial cancer cells. To be noted: 144 h, 6-day incubation. On the procedure: as §1, §2, §3, §4
For another test, the system named is HEC-108 cells. Description: CellTiter-Glo viability/proliferation assay, growth of HEC-108 TP53 WT endometrial cancer cells. As to the method: as §1, §2, §3, §4
Test [1] deals with p53 wild-type (TP53 WT) endometrial cancer cell line. Briefly: Inhibition of endometrial cancer cell growth (overall result, FIG. 1). The conditions noted are these: at clinically relevant doses; results shown in FIG. 1. As to the method:
as §1, §2, §3, §4

Setting [2] is: read-out: Near complete growth inhibition (EC90).

The EC50 is the concentration that produces a half-maximal response. For orientation: EC90 means the concentration needed for an effect of 90%.

In the case of `CC(C)[C@@H](CS(=O)(=O)C(C)C)N1C(=O)[C@@](C)(CC(=O)O)C[C@H](c2cccc(Cl)c2)[C@H]1c1ccc(Cl)cc1` [Formula (I), 2-((3R,5R,6S)-5-(3-chlorophenyl)-6-(4-chlorophenyl)-1-((S)-1-(isopropylsulfonyl)-3-methylbutan-2-yl)-3-methyl-2-oxopiperidin-3-yl) acetic Acid], the results for the EC50 in the test on HEC-151 cells (percent of DMSO control) and in the test on HEC-265 cells (percent of DMSO control) were 0.4 µM and 0.6 µM, respectively. For the same compound, the EC90 with HEC-151 cells (setting [2]) and with HEC-265 cells (setting [2]) was 0.7 µM throughout. For the same compound, in the test on HEC-108 cells (at 10 μM, 6-day exposure), the “growth inhibition (200-point scale: 0 uninhibited growth, 100 cell stasis, 200 complete cell killing)” value is “only nearly reached cell stasis”. The cell killing sensitivity entry with HEC-108 cells (compared with HEC-151 and HEC-265, 6-day exposure) is recorded as “less sensitive”. The growth inhibition result in test [1] is on record as “growth inhibition by the compound of Formula (I) at clinically relevant doses”.
